Source: US4626547A, “Antibiotic AM-2604-A, an anti-trichomonas agent, anti-caccidium agent, anti-viral agent and anti-fungal agent containing the same and methods of use of the same” (The Kitasato Institute, priority 1982, dated 1986)
In brackets after ≈: the same amount, converted by molar mass. Entries after “also recorded” stand apart in the source; their conditions may differ.

Experiments:
Alternaria kikuchiana = assay: MIC by agar dilution method; assay type: cell-based
Source text: (§1) The minimum inhibitory concentrations (MIC) of the antibiotic substance as determined by the agar dilution method are shown in Table 1 below.

Aspergillus niger = assay: MIC by agar dilution method; assay type: cell-based
Source text: as §1

[1] = tested on: Bacillus subtilis ATCC 6633; assay: MIC by agar dilution method; assay type: cell-based; conditions: ATCC6633
Source text: as §1

Botrytis cinerea = assay: MIC by agar dilution method; assay type: cell-based
Source text: as §1

Candida albicans = assay: MIC by agar dilution method; assay type: cell-based
Source text: as §1

Escherichia coli NIHJ = assay: MIC by agar dilution method; assay type: cell-based
Source text: as §1

Fusarium oxysporum = assay: MIC by agar dilution method; assay type: cell-based
Source text: as §1

[2] = tested on: Micrococcus luteus ATCC 9341; assay: MIC by agar dilution method; assay type: cell-based; conditions: ATCC9341
Source text: as §1

Microsporum gypseum = assay: MIC by agar dilution method; assay type: cell-based; conditions: Nannizzia gypsea
Source text: as §1

Monilinia fructicola = assay: MIC by agar dilution method; assay type: cell-based
Source text: as §1

Mucor racemosus = assay: MIC by agar dilution method; assay type: cell-based
Source text: as §1

[3] = tested on: Mycobacterium smegmatis ATCC 607; assay: MIC by agar dilution method; assay type: cell-based; conditions: Mycolicibacterium smegmatis, ATCC607
Source text: as §1

[4] = tested on: Proteus vulgarius IFO 3167; assay: MIC by agar dilution method; assay type: cell-based
Source text: as §1

Saccharomyces sake = assay: MIC by agar dilution method; assay type: cell-based
Source text: as §1

[5] = tested on: Staphylococcus aureus ATCC 65389; assay: MIC by agar dilution method; assay type: cell-based; conditions: ATCC65389
Source text: as §1

[6] = tested on: Trichophyton interdigitale; assay: MIC by agar dilution method; assay type: cell-based
Source text: as §1

Xanthomonas oryzae = assay: microbe, parasite or virus in culture; assay type: cell-based
Piricularia oryzae = assay: microbe, parasite or virus in culture; assay type: cell-based
[7] = tested on: Vesicular stomatitis virus (VSV); assay: microbe, parasite or virus in culture; assay type: cell-based; conditions: 48 h, read-out: 50% Effective Dose (ED50)
Sindbis virus (Sb) = assay: Antiviral plaque-formation reduction in CE cells; assay type: cell-based; conditions: 48 h, 20 h pretreatment, 2 days, read-out: 50% Effective Dose (ED50)
[8] = tested on: Western equine encephalitis virus (WEE); assay: microbe, parasite or virus in culture; assay type: cell-based; conditions: 48 h, read-out: 50% Effective Dose (ED50)
[9] = tested on: Newcastle disease virus (NDV); assay: microbe, parasite or virus in culture; assay type: cell-based; conditions: avian paramyxovirus 1, 96 h; read-out: 50% Effective Dose (ED50)
[10] = tested on: DIE strain of vaccinia virus (Vac-DIE); assay: microbe, parasite or virus in culture; assay type: cell-based; conditions: Orthopoxvirus vaccinia, 96 h; read-out: 50% Effective Dose (ED50)
[11] = tested on: IHD strain of vaccinia virus (Vac-IHD); assay: microbe, parasite or virus in culture; assay type: cell-based; conditions: Orthopoxvirus vaccinia, 96 h; read-out: 50% Effective Dose (ED50)
[12] = tested on: Herpes virus Type No. 1 (HSV-1); assay: Antiviral plaque-formation reduction in CE cells; assay type: cell-based; conditions: Human alphaherpesvirus 1, 72 h, 20 h pretreatment, 3 days, read-out: 50% Effective Dose (ED50)
[13] = tested on: Herpes virus Type No. 2 (HSV-2); assay: Antiviral plaque-formation reduction in CE cells; assay type: cell-based; conditions: Human alphaherpesvirus 2, 72 h, 20 h pretreatment, 3 days, read-out: 50% Effective Dose (ED50)
Eimeria tenella = assay: Effectiveness on coccidium-infected chicken; assay type: in vivo, white leghorn male chicks infected with Eimeria tenella; conditions: for Disorder of Cecum, grade - (Normal): chicks per group with grade -; for Disorder of Cecum, grade ± (Minor): chicks per group with grade ±; for Ratio of Increment of Weight: non-infected control = 1.00
Method: The potency of the antibiotic substance on coccidium-infected chickens was determined as follows:
Two-week-old white leghorn male chicks were divided into four groups of ten each. The feed used in this assay was a commercially available chick-breeding standard feed (major components: 19% crude protein, 2.5% crude fat, 5.0% crude fiber, 8.0% crude ash, 0.7% calcium, and 0.55% phosphorus).
One day after the start of feeding, 2×10^4 mature oocysts of Eimeria tenella per chick were orally administered to the chicks of the groups (Groups 1, 2 and 3) except for a non-infected control group (Group 4). Thereafter, the chicks of Groups 1 and 2 were bred by feeding the standard feed containing 0.005% and 0.0l% of the antibiotic substance, respectively, and Groups 3 and 4 were bred by feeding only the standard feed.
During the breeding period, the weight of each chick was measured, and the blood in the feces was observed. Furthermore, the number of oocysts in the feces 7 days after the infection of the oocysts were counted, and the disorder of cecum was examined by necropsy. In this way, the anti-coccidium action of the antibiotic substance was determined.
The items in Table 3 are as follows: [formula]
The amount of blood from the intestine of the chick is judged from the number of blood stains.
+ Minor, but slight disorder is observed.
++ Moderate hypertrophy is observed.
+++ Serious (disorder is very significant)
Number of oocysts per gram of the feces 7 days after the infection

Trichomonas foetus = assay: Infection-therapy test of Trichomonas foetus-infected mice; assay type: in vivo, mice infected with Trichomonas foetus; conditions: for Number of Mice That Died / Cured Mice / Living Mice with Formation of Ascites / Mice with Trichomonas foetus: oral; for Cured Mice / Living Mice with Formation of Ascites / Mice with Trichomonas foetus: 7 days
Method: An infection-therapy test of Trichomonas foetus-infected mice was performed as follows:
Mice were divided into groups of ten. Trichomonas foetus was cultivated at 37° C. on a Trichocel broth with 5% inactivated calf serum added (produced by BBL Co.) for 48 hours. One milliliter of the Trichomonas foetus-containing solution (4×10^6 cells/ml) was injected intraperitoneally into mice having a weight of about 20 g. […]
The infection-therapy effect was judged as follows:
Seven days after the injection of Trichomonas foetus, the formation of ascites was examined. In the case of mice in which ascites was formed, the ascites were taken out and the presence of Trichomonas foetus was examined using a microscope.

[14] = Toxicity testing, intraperitoneal injection; conditions: mouse, in vivo, ip, mice
Method: The toxicity testing of the antibiotic AM-2604-A substance was performed using mice by the intraperitoneal injection method.

Solubility in solvents = assay type: physicochemical
Gram-positive bacteria = assay: Antibacterial activity against Gram-positive bacteria (summary); assay type: cell-based
Gram-negative bacteria = assay: Antibacterial activity against Gram-negative bacteria (summary); assay type: cell-based
fungi [15] = assay: Antifungal activity (summary); assay type: cell-based
DNA or RNA viruses = assay: Antiviral activity (summary); assay type: cell-based, virus
fungi [16] = conditions: known antibiotic substances, literature; cited from earlier work
[17] = drug amount administered 4 mg/kg
[18] = drug amount administered 8 mg/kg

Compound C/C=C/C1OC(O)(C(C)C(O)C(C)C2OC(=O)C(OC)=CC(C)=CC(C)C(O)C(CC)C(O)C(C)CC(C)=CC=CC2OC)CC(OC(=O)/C=C/C(=O)NC2=C(O)CCC2=O)C1C (stereo not shown) [AM-2604-A] has an MIC (Alternaria kikuchiana) of over 50 µg/mL, an MIC (Aspergillus niger) of over 100 µg/mL and an MIC [1] of over 100 µg/mL. For the same compound, the MIC (Botrytis cinerea) was over 50 µg/mL, the MIC (Candida albicans) was over 100 µg/mL and the MIC (Escherichia coli NIHJ) was over 100 µg/mL. For the same compound, the MIC (Fusarium oxysporum) was over 100 µg/mL, the MIC [2] was over 100 µg/mL and the MIC (Microsporum gypseum) was 50 µg/mL (≈ 56.4 µM). The MIC (Monilinia fructicola) was 12.5 µg/mL (≈ 14.1 µM), the MIC (Mucor racemosus) was 50 µg/mL (≈ 56.4 µM) and the MIC [3] was over 100 µg/mL. It also gave an MIC [4] of over 100 µg/mL, an MIC (Saccharomyces sake) of 100 µg/mL (≈ 113 µM) and an MIC [5] of over 100 µg/mL. For the same compound, the MIC [6] was 50 µg/mL (≈ 56.4 µM), the MIC (Xanthomonas oryzae) was over 50 µg/mL and the MIC (Piricularia oryzae) was 12.5 µg/mL (≈ 14.1 µM). It also gave an EC50 [7] of 0.0003 µg/mL (≈ 0.000339 µM), an EC50 (Sindbis virus (Sb)) of 0.0005 µg/mL (≈ 0.000564 µM) and an EC50 [8] of 0.0003 µg/mL (≈ 0.000339 µM). It also gave an EC50 [9] of 0.0003 µg/mL (≈ 0.000339 µM), an EC50 [10] of 0.0003 µg/mL (≈ 0.000339 µM) and an EC50 [11] of 0.0003 µg/mL (≈ 0.000339 µM). For the same compound, the EC50 [12] was 0.0003 µg/mL (≈ 0.000339 µM), the EC50 [13] was 0.0003 µg/mL (≈ 0.000339 µM) and the “Increment of Weight” value (Eimeria tenella; Group 1, 0.005% in feed) was 1.83. The “Disorder of Cecum, grade + (Minor, but slight disorder is observed)” value (Eimeria tenella; Group 1, 0.005% in feed, chicks per group with grade +) was 1/10, the “Disorder of Cecum, grade - (Normal)” value (Eimeria tenella; Group 1, 0.005% in feed) was 8/10 and the “Disorder of Cecum, grade ± (Minor)” value (Eimeria tenella; Group 1, 0.005% in feed) was 1/10. For the same compound, the “Ratio of Increment of Weight” value (Eimeria tenella; Group 1, 0.005% in feed) was 0.99, the “Increment of Weight” value (Eimeria tenella; Group 2, 0.01% in feed) was 1.86 and the “Number of Oocysts (on the average)” value (Eimeria tenella; Group 2, 0.01% in feed, 7 days after the infection) was 0 per gram of the feces. For the same compound, the “Disorder of Cecum, grade - (Normal)” value (Eimeria tenella; Group 2, 0.01% in feed) was 9/10, the “Disorder of Cecum, grade ± (Minor)” value (Eimeria tenella; Group 2, 0.01% in feed) was 1/10 and the “Ratio of Increment of Weight” value (Eimeria tenella; Group 2, 0.01% in feed) was 1.01. The “anticoccidium action (in words)” value (Eimeria tenella; summary of Table 3) was “excellent anticoccidium action; also recorded: active”, the “Number of Mice That Died” value (Trichomonas foetus; [17]) was 2/10 and the “Cured Mice” value (Trichomonas foetus; [17]) was 5/10. For the same compound, the “Living Mice with Formation of Ascites” value (Trichomonas foetus; [17]) was 2/10, the “Mice with Trichomonas foetus” value (Trichomonas foetus; [17]) was 5/10 and the “Number of Mice That Died” value (Trichomonas foetus; [18]) was 1/10. For the same compound, the “Cured Mice” value (Trichomonas foetus; [18]) was 8/10, the “Living Mice with Formation of Ascites” value (Trichomonas foetus; [18]) was 1/10 and the “Mice with Trichomonas foetus” value (Trichomonas foetus; [18]) was 2/10. For the same compound, the “anti-trichomonas action (in words)” value (Trichomonas foetus; summary of Table 4) was “excellent anti-trichomonas action; also recorded: active”, the LD50 [14] was 3 mg/kg and the “Solubility in organic solvents such as chloroform, acetone, and ethyl acetate” value (Solubility in solvents; chloroform, acetone, ethyl acetate) was “Soluble”. For the same compound, the “Solubility in lower alcohols” value (Solubility in solvents; lower alcohols) was “sparingly soluble”, the “Solubility in n-hexane and water” value (Solubility in solvents; n-hexane and water) was “insoluble” and the “activity against Gram-positive bacteria (in words)” value (Gram-positive bacteria) was “little antibacterial activity; also recorded: almost inactive”. The “activity against Gram-negative bacteria (in words)” value (Gram-negative bacteria) was “little antibacterial activity”, the “activity against fungi (in words)” value (fungi [15]) was “active” and the “activity against viruses (in words)” value (DNA or RNA viruses) was “high inhibitory activity; also recorded: active”.

In the case of COC1=CC(C)=CC(C)C(O)C(C)CC(C)=CC=CC(OC)C(C(C)C(O)C(C)C2(O)CC(OC(=O)/C=C/C(=O)NC3=C(O)CCC3=O)C(C)C(C(C)C)O2)OC1=O (stereo not shown) [Setamycin], the “activity against fungi of known antibiotics (in words)” value (fungi [16]) is listed as “active”.
